Literature values in paper PMC8398847, “Isavuconazole: Thermodynamic Evaluation of Processes Sublimation, Dissolution and Partition in Pharmaceutically Relevant Media” (Molecules, 2021).
Where “and” joins values, the source holds several entries; their conditions need not be identical. Equal entries are not always repeated.

Settings: 298.15 K, cited from earlier work; for sublimation Gibbs energy (kJ∙mol-1, Table S2) / sublimation enthalpy (first kJ∙mol-1 column, Table S2): bicalutamide cluster; for sublimation Gibbs energy (Table S1) / sublimation enthalpy (Table S1): IVZ cluster, ref Table S1 [1]-[16]

| Molecule | sublimation Gibbs energy (kJ∙mol-1, Table S2) | sublimation enthalpy (first kJ∙mol-1 column, Table S2) | sublimation Gibbs energy (Table S1) [kJ/mol] | sublimation enthalpy (Table S1) [kJ/mol] |
| --- | --- | --- | --- | --- |
| NC(=O)c1cccc(N)c1 [m-Aminobenzamide] | 57.5 kJ/mol and 57.8 kJ/mol | 125.3 kJ/mol and 128.6 kJ/mol | – | – |
| O=C(O)c1cccnc1Nc1cccc(C(F)(F)F)c1 [Niflumic acid] | 61.3 kJ/mol | 130.2 kJ/mol | – | – |
| O=[N+]([O-])c1ccc(F)cc1 [4-Fluoronitrobenzene] | 18.9 kJ/mol | 70.9 kJ/mol | – | – |
| NC(=O)c1ccc(N)cc1 [p-Aminobenzamide] | 61.7 kJ/mol | 131.2 kJ/mol | – | – |
| Cc1ccccc1NC(=O)c1c(C)[n+]([O-])c2ccccc2[n+]1[O-] [3-methyl-N-(2-methylphenyl)-2-quinoxalinecarboxamide-1,4-dioxide] | 71.9 kJ/mol | 154.8 kJ/mol | – | – |
| CC(=O)Nc1ccc(Cl)cc1 [4'-Chloroacetanilide] | 50.1 kJ/mol | 113.8 kJ/mol | – | – |
| CNc1ccc(C(=O)O)cc1 [4-(methylamino)benzoic acid] | 55.3 kJ/mol | 123.9 kJ/mol | – | – |
| CC(=O)Nc1cccc(O)c1 [3-Acetamidophenol] | 56.4 kJ/mol | 111 kJ/mol | – | – |
| N#Cc1ccc(I)cc1 [4-Iodobenzonitrile] | – | – | 32.8 | 88.0 |
| O=C(O)c1ccccc1Nc1ccccc1 [N-phenyl-Anthranilic acid] | 58.9 kJ/mol | 126 kJ/mol | – | – |
| O=C(O)c1ccccc1Nc1cccc(C(F)(F)F)c1 [Flufenamic acid] | 54.3 kJ/mol | 121.2 kJ/mol | – | – |
| NC(=O)c1ccccc1N [o-Aminobenzamide] | 46.1 kJ/mol | 106.8 kJ/mol | – | – |
| Oc1ccc(F)cc1 [4-Fluorophenol] | 19.9 kJ/mol | 74.1 kJ/mol | 19.9 | 74.1 |
| O=C(O)c1ccc(F)cc1 [4-fluorobenzoic acid] | 36.8 kJ/mol | 93.1 kJ/mol | 36.8 | 93.1 |
| O=[N+]([O-])c1cccc(F)c1 [3-Fluoronitrobenzene] | 17.1 kJ/mol | 72.3 kJ/mol | – | – |
| N#Cc1cccc(F)c1 [3-Fluorobenzonitrile] | – | – | 15.8 | 65.4 |
| NC(=O)c1cccc(F)c1 [3-Fluorobenzamide] | 42.5 kJ/mol | 104.1 kJ/mol | – | – |

| Molecule | sublimation Gibbs energy (kJ∙mol-1, Table S2) | sublimation enthalpy (first kJ∙mol-1 column, Table S2) | sublimation Gibbs energy (Table S1) [kJ/mol] | sublimation enthalpy (Table S1) [kJ/mol] |
| --- | --- | --- | --- | --- |
| CC(C)(O)c1ccccc1 [1-methyl-1-phenylethanol] | 22 kJ/mol | 82.3 kJ/mol | 22.0 | 82.3 |
| N#Cc1ccc(Br)cc1 [4-Bromobenzonitrile] | – | – | 28.5 | 80.8 |
| NC(=O)c1ccccc1F [2-Fluorobenzamide] | 35.8 kJ/mol | 95.4 kJ/mol | – | – |
| O=C(O)c1cccc(F)c1 [3-fluorobenzoic acid] | 34.4 kJ/mol | 93.6 kJ/mol | 34.4 | 93.6 |
| Fc1ccc(-n2cccc2)cc1 [1-(4-fluorophenyl)pyrrole] | 25.4 kJ/mol | 78.9 kJ/mol | – | – |
| NC(=O)c1ccc(F)cc1 [4-Fluorobenzamide] | 43.2 kJ/mol | 102.8 kJ/mol | – | – |
| CC(N)=O [Acetamide] | 40.5 kJ/mol | 99.8 kJ/mol | – | – |
| c1ccc(CNc2ccccc2)cc1 [N-phenyl benzylamine] | 36.9 kJ/mol | 104.4 kJ/mol | – | – |
| O=C(O)c1ccccc1F [2-fluorobenzoic acid] | 35.5 kJ/mol | 94.4 kJ/mol | 35.5 | 94.4 |
| N#Cc1ccc(C(=O)O)cc1 [4-Cyanobenzoic acid] | 50.7 kJ/mol | 112.8 kJ/mol | – | – |
| CC(O)Cc1nsc(Nc2ccc(F)cc2)n1 (stereo not drawn) [1-[5-(4-Fluoro-phenylamino)-[1,2,4]thiadiazol-3-yl]-propan-2-ol] | 59.1 kJ/mol | 124.8 kJ/mol | – | – |
| CC(=O)Nc1ccc(C=O)cc1 [p-acetaminobenzaldehyde] | 44.1 kJ/mol | 99.1 kJ/mol | – | – |
| N#Cc1ccc(F)cc1 [4-Fluorobenzonitrile] | – | – | 17.6 | 67.7 |
| CC(=O)Nc1ccccc1C [N-(2-methylphenyl)acetamide] | 40.9 kJ/mol | 97.1 kJ/mol | – | – |
| CC(O)(c1ccccc1)c1ccccc1 [1,1-diphenylethanol] | 39.1 kJ/mol | 105 kJ/mol | 39.1 | 105.0 |
| 2-phenylcarbamoyl-3-methylquinoxaline-N-oxide | 69.2 kJ/mol | 145.1 kJ/mol | – | – |
